According to patent US20240043427A1 (Gilead Sciences, Inc., priority 2020, published 2024):

Experiments:
CD73 [1] = target: T1, CD73 (Homo sapiens (Human), UniProt P21589); experiment: MDA-MB-231 Cell Based CD73 Activity Assay (DMEM); conditions: MDA-MB-231-GFP cells, DMEM medium with 10% human plasma, 200 uM AMP
CD73 [2] = target: T1, CD73; format: biochemical; conditions: 1 mM NaH2PO4 in enzyme buffer, CD73 0.3 nM, AMP 15 uM

T1 sequence (P21589 27-574): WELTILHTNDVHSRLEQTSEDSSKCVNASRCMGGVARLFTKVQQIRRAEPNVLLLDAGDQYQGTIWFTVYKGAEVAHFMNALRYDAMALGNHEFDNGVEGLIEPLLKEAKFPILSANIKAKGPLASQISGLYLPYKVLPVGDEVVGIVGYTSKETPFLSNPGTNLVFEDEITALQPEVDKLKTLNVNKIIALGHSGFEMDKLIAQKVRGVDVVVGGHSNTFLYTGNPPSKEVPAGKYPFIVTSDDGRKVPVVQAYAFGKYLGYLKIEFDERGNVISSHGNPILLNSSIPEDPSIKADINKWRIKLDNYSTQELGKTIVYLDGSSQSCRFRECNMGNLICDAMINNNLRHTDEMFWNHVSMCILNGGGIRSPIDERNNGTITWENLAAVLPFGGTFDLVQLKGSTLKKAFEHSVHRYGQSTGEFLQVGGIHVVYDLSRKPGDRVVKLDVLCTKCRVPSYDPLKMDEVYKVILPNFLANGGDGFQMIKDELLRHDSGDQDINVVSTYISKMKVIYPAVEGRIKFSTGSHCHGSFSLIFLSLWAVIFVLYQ

| Compound | EC50 (CD73 [1]) | IC50 (CD73 [2]) |
| --- | --- | --- |
| Cc1nc2ccc([C@H]3C[C@@H]3c3cc(-c4c[nH]c(=O)[nH]c4=O)nn4ccnc34)cc2s1 (racemic) [Example 570, 5-(8-((1S,2S)-2-(2-methylbenzo[d]thiazol-6-yl)cyclopropyl)imidazo[1,2-b]pyridazin-6-yl)pyrimidine-2,4(1H,3H)-dione] | 0.84 nM | 0.8 nM |
| O=c1[nH]cc(-c2cc([C@H]3C[C@@H]3c3cc4c(cn3)c(C(F)(F)F)nn4CC(F)(F)F)c3nccn3n2)c(=O)[nH]1 (racemic) [Example 608, 5-(8-((1S,2S)-2-(1-(2,2,2-trifluoroethyl)-3-(trifluoromethyl)-1H-pyrazolo[4,3-c]pyridin-6-yl)cyclopropyl)imidazo[1,2-b]pyridazin-6-yl)pyrimidine-2,4(1H,3H)-dione] | 0.48 nM | 2.36 nM |
| O=c1[nH]cc(-c2cc(NC3CCC(F)(F)C3)c3nccn3n2)c(=O)[nH]1 (stereo not shown) [Example 227, 5-(8-((3,3-difluorocyclopentyl)amino)imidazo[1,2-b]pyridazin-6-yl)pyrimidine-2,4(1H,3H)-dione] | 487 nM | > 250 nM |
| O=c1[nH]cc(-c2cc([C@H]3C[C@@H]3c3ccc4cnn(CC(F)F)c4c3)c3nccn3n2)c(=O)[nH]1 (racemic) [Example 123, 5-(8-((1S,2S)-2-(1-(2,2-difluoroethyl)-1H-indazol-6-yl)cyclopropyl)imidazo[1,2-b]pyridazin-6-yl)pyrimidine-2,4(1H,3H)-dione and 5-(8-((1R,2R)-2-(1-(2,2-difluoroethyl)-1H-indazol-6-yl)cyclopropyl)imidazo[1,2-b]pyridazin-6-yl)pyrimidine-2,4(1H,3H)-dione] | 0.37 nM | 0.69 nM |
| O=c1[nH]cc(-c2cc(N3CC(O)C4(CC4)C3)c3nccn3n2)c(=O)[nH]1 (stereo not shown) [Example 344, 5-[8-(7-hydroxy-5-azaspiro[2.4]heptan-5-yl)imidazo[1,2-b]pyridazin-6-yl]-1H-pyrimidine-2,4-dione] | 97 nM | 38.4 nM |
| O=c1[nH]cc(-c2cc([C@H]3C[C@@H]3c3ccc4nc5n(c4c3)[C@H](C(F)(F)F)CC5)c3nccn3n2)c(=O)[nH]1 [Example 639, 5-(8-((1S,2S)-2-((S)-1-(trifluoromethyl)-2,3-dihydro-1H-benzo[d]pyrrolo[1,2-a]imidazol-7-yl)cyclopropyl)imidazo[1,2-b]pyridazin-6-yl)pyrimidine-2,4(1H,3H)-dione] | 0.58 nM | 2.42 nM |
| O=c1[nH]cc(-c2cc(N3CC[C@H](OC(F)(F)F)C3)c3nccn3n2)c(=O)[nH]1 [Example 196, 5-[8-[(3S)-3-(trifluoromethoxy)pyrrolidin-1-yl]imidazo[1,2-b]pyridazin-6-yl]-1H-pyrimidine-2,4-dione] | 243 nM | 98.6 nM |
| O=c1[nH]cc(-c2cc([C@H]3C[C@@H]3c3ccc(OCC(F)(F)F)cc3)c3nccn3n2)c(=O)[nH]1 (racemic) [Example 564, 5-(8-((1S,2S)-2-(4-(2,2,2-trifluoroethoxy)phenyl)cyclopropyl)imidazo[1,2-b]pyridazin-6-yl)pyrimidine-2,4(1H,3H)-dione] | 31.3 nM | 2.53 nM |
| CC(=O)N1CCC12CCN(c1cc(-c3c[nH]c(=O)[nH]c3=O)nn3ccnc13)C2 (stereo not shown) [Example 656, 5-(8-(1-acetyl-1,6-diazaspiro[3.4]octan-6-yl)imidazo[1,2-b]pyridazin-6-yl)pyrimidine-2,4(1H,3H)-dione] | 57 nM | 10.1 nM |
| O=c1[nH]cc(-c2cc([C@H]3C[C@@H]3c3ccc(OC(F)F)nc3)c3ncc(F)n3n2)c(=O)[nH]1 (racemic) [Example 121, 5-(8-((1S,2S)-2-(6-(difluoromethoxy)pyridin-3-yl)cyclopropyl)-3-fluoroimidazo[1,2-b]pyridazin-6-yl)pyrimidine-2,4(1H,3H)-dione and 5-(8-((1R,2R)-2-(6-(difluoromethoxy)pyridin-3-yl)cyclopropyl)-3-fluoroimidazo[1,2-b]pyridazin-6-yl)pyrimidine-2,4(1H,3H)-dione] | 19.7 nM | 1.08 nM |
| O=c1[nH]cc(-c2cc(N3CC[C@H](CC(F)F)C3)c3nccn3n2)c(=O)[nH]1 [Example 454, (R)-5-(8-(3-(2,2-difluoroethyl)pyrrolidin-1-yl)imidazo[1,2-b]pyridazin-6-yl)pyrimidine-2,4(1H,3H)-dione] | 50.6 nM | 28.7 nM |
| O=c1[nH]cc(-c2cc([C@H]3C[C@@H]3c3ccc4cnn(-c5ccc(C(F)(F)F)cn5)c4c3)c3nccn3n2)c(=O)[nH]1 (racemic) [Example 383, 5-(8-((1S,2S)-2-(1-(5-(trifluoromethyl)pyridin-2-yl)-1H-indazol-6-yl)cyclopropyl)imidazo[1,2-b]pyridazin-6-yl)pyrimidine-2,4(1H,3H)-dione] | 49.3 nM | 1.83 nM |
| O=C1N(CC(F)(F)F)c2cc([C@H]3C[C@@H]3c3cc(-c4c[nH]c(=O)[nH]c4=O)nn4c(F)cnc34)ccc2C12CCC2 [Example 386, 5-(3-fluoro-8-((1S,2S)-2-(2′-oxo-1′-(2,2,2-trifluoroethyl)spiro[cyclobutane-1,3′-indolin]-6′-yl)cyclopropyl)imidazo[1,2-b]pyridazin-6-yl)pyrimidine-2,4(1H,3H)-dione] | 0.28 nM | 0.92 nM |
| O=c1[nH]cc(-c2cc([C@H]3C[C@@H]3c3ccc4nc5n(c4c3)C(C(F)(F)F)CC5)c3nccn3n2)c(=O)[nH]1 (mixture of isomers) [Example 616, 5-(8-((1S,2S)-2-(1-(trifluoromethyl)-2,3-dihydro-1H-benzo[d]pyrrolo[1,2-a]imidazol-7-yl)cyclopropyl)imidazo[1,2-b]pyridazin-6-yl)pyrimidine-2,4(1H,3H)-dione] | 0.2 nM | 2.3 nM |
| CNC(=O)c1cccc(C2CCN(c3cc(-c4c[nH]c(=O)[nH]c4=O)nn4ccnc34)C2)c1 (stereo not shown) [Example 269, 3-(1-(6-(2,4-dioxo-1,2,3,4-tetrahydropyrimidin-5-yl)imidazo[1,2-b]pyridazin-8-yl)pyrrolidin-3-yl)-N-methylbenzamide] | 27 nM | 3.62 nM |
| O=c1[nH]cc(-c2cc(N3CC(F)(F)C4(CC4)C3)c3nncn3n2)c(=O)[nH]1 [Example 266, 5-(8-(7,7-difluoro-5-azaspiro[2.4]heptan-5-yl)-[1,2,4]triazolo[4,3-b]pyridazin-6-yl)pyrimidine-2,4(1H,3H)-dione] | 13.5 nM | 1.93 nM |
| O=c1[nH]cc(-c2cc([C@H]3C[C@@H]3c3cc4c(cn3)nc(C(F)(F)F)n4CC(F)(F)F)c3nccn3n2)c(=O)[nH]1 (racemic) [Example 624, 5-(8-((1S,2S)-2-(1-(2,2,2-trifluoroethyl)-2-(trifluoromethyl)-1H-imidazo[4,5-c]pyridin-6-yl)cyclopropyl)imidazo[1,2-b]pyridazin-6-yl)pyrimidine-2,4(1H,3H)-dione] | 0.32 nM | 5.81 nM |
| O=c1[nH]cc(-c2cc([C@H]3C[C@@H]3c3ccc4c(cnn4CC(F)(F)F)c3)c3ncc(F)n3n2)c(=O)[nH]1 [Example 317, 5-(3-fluoro-8-((1S,2S)-2-(1-(2,2,2-trifluoroethyl)-1H-indazol-5-yl)cyclopropyl)imidazo[1,2-b]pyridazin-6-yl)pyrimidine-2,4(1H,3H)-dione] | 2 nM | 1.01 nM |
| O=c1[nH]cc(-c2cc(N3C[C@@H](F)[C@@H](F)C3)n3ncnc3n2)c(=O)[nH]1 [Example 472, 5-(7-((3R,4S)-3,4-difluoropyrrolidin-1-yl)-[1,2,4]triazolo[1,5-a]pyrimidin-5-yl)pyrimidine-2,4(1H,3H)-dione] | 58.6 nM | 15.6 nM |
| O=C(OCC(F)(F)F)OCC(F)(F)COc1cc(-c2c[nH]c(=O)[nH]c2=O)nn2ccnc12 [Example 696, 3-((6-(2,4-dioxo-1,2,3,4-tetrahydropyrimidin-5-yl)imidazo[1,2-b]pyridazin-8-yl)oxy)-2,2-difluoropropyl (2,2,2-trifluoroethyl) carbonate] | 105 nM | 0.51 nM |
| COC(=O)c1cccc(C2CCN(c3cc(-c4c[nH]c(=O)[nH]c4=O)nn4ccnc34)C2)c1 (stereo not shown) [Example 264, Methyl 3-(1-(6-(2,4-dioxo-1,2,3,4-tetrahydropyrimidin-5-yl)imidazo[1,2-b]pyridazin-8-yl)pyrrolidin-3-yl)benzoate] | 88 nM | 5.59 nM |
| CC1(C(F)F)CN(c2cc(-c3c[nH]c(=O)[nH]c3=O)nn3ccnc23)C1 [Example 399, 5-(8-(3-(difluoromethyl)-3-methylazetidin-1-yl)imidazo[1,2-b]pyridazin-6-yl)pyrimidine-2,4(1H,3H)-dione] | 27 nM | 12.2 nM |
| O=c1[nH]cc(-c2cc(NCCCc3ccccc3)c3nccn3n2)c(=O)[nH]1 [Example 486, 5-(8-((3-phenylpropyl)amino)imidazo[1,2-b]pyridazin-6-yl)pyrimidine-2,4(1H,3H)-dione] | 1010 nM | > 250 nM |
| COCCNc1cc(-c2c[nH]c(=O)[nH]c2=O)nn2ccnc12 [Example 669, 5-(8-((2-methoxyethyl)amino)imidazo[1,2-b]pyridazin-6-yl)pyrimidine-2,4(1H,3H)-dione] | 690 nM | > 250 nM |
| O=c1[nH]cc(-c2cc([C@@H]3[C@@H](c4ccc(F)c(F)c4)C3(F)F)c3nccn3n2)c(=O)[nH]1 (racemic) [Example 552, 5-(8-((1S,3S)-3-(3,4-difluorophenyl)-2,2-difluorocyclopropyl)imidazo[1,2-b]pyridazin-6-yl)pyrimidine-2,4(1H,3H)-dione] | 15.2 nM | 2.76 nM |
| O=c1[nH]cc(-c2cc(N3C[C@H](Oc4ccc(OC(F)(F)C(F)(F)F)cn4)C(F)(F)C3)c3nccn3n2)c(=O)[nH]1 [Example 337, (S)-5-(8-(3,3-difluoro-4-((5-(perfluoroethoxy)pyridin-2-yl)oxy)pyrrolidin-1-yl)imidazo[1,2-b]pyridazin-6-yl)pyrimidine-2,4(1H,3H)-dione] | 15.9 nM | 3.29 nM |
